This is an account of results in PMC4109893 (MedChemComm, 2014).

The assay concerns mammalian GPAT. Put plainly: GPAT inhibition in vitro. In kind it is biochemical. As to conditions: for fold decrease in inhibition compared to corresponding linker-free analog: 15a vs 13d, 18b vs 12h; for fold increase in inhibitory activity compared to 1c: relative to 1c; for IC50: read-out: IC50 (µM) ± SD.

SMILES strings stand for the structures. Like-named read-outs stand apart in the source and are kept apart here.

For `CCCCCCCCS(=O)(=O)Nc1ccc(C(=O)c2ccc(CCCC)cc2)cc1C(=O)O` [Compound 15a], the “fold decrease in inhibition compared to corresponding linker-free analog” value was 3.5 fold. As for `CCCCCCCCS(=O)(=O)Nc1ccc(-c2ccc(CCCC)cc2)cc1C(=O)O` [Compound 13d], the “fold increase in inhibitory activity compared to 1c” value came out at 2.9 fold. `CCCCCCCCS(=O)(=O)Nc1cc(CCc2ccc(OC)cc2)ccc1C(=O)O` [Compound 18b]: the “fold decrease in inhibition compared to corresponding linker-free analog” value turned out to be 3.2 fold. Turning to `CCCCCCCCS(=O)(=O)Nc1ccc(-c2ccccc2Cl)cc1C(=O)O` [Compound 13a], under “GPAT inhibition by 5-substituted derivatives (Table 2)”, the IC50 came out at 14.4 ± 1.3 µM. Take `CCCCCCCCS(=O)(=O)Nc1cc(C(=O)c2ccc(-c3ccccc3)cc2)ccc1C(=O)O` [Compound 14b, 4-([1,1'-biphenyl]-4-carbonyl)-2-(octanesulfonamido)benzoic acid]: the “fold increase in inhibitory activity compared to 1c” value was determined as 3 fold. Also, the “fold more potent inhibition compared to linker-free analog 13f” value (relative to 13f) worked out at 2 fold. Turning to `CCCCCCCCS(=O)(=O)Nc1ccccc1C(=O)O` [Compound 1c, 2-(octanesulfonamido)benzoic acid], the “inhibitory activity against GPAT (in words)” value (in vitro) is recorded as “comparable to 1b”. In the case of `CCCCCCCCS(=O)(=O)Nc1ccc(-c2ccccc2-c2ccccc2)cc1C(=O)O` [Compound 13e], the “fold increase in inhibitory activity compared to 1c” value turned out to be 2.5 fold. With `CCCCCCCCS(=O)(=O)Nc1cc(-c2ccccc2O)ccc1C(=O)O` [Compound 12k], where the note is “GPAT inhibition by 4-substituted derivatives (Table 1)”, the IC50 worked out at 63.1 ± 5.5 µM.

In the case of `CCCCCCCCS(=O)(=O)Nc1ccc(-c2cccc(Cl)c2)cc1C(=O)O` [Compound 13b], the “fold increase in inhibitory activity compared to 1c” value is listed as 2.9 fold.

The term IC50 denotes the concentration needed to halve the response being measured.
